According to EP4289427A1, “DIHYDRO[1,8]NAPHTHYRIDIN-7-ONE AND PYRIDO[3,2-B][1,4]OXAZIN-3-ONE FOR USE IN TREATING CANCER, AND METASTASES IN PARTICULAR” (Anagenesis Biotechnologies, priority 2022, dated 2023):

What was measured:
RPMI 8226 = experiment: Cytotoxicity assay on KRAS mutated RPMI 8226 cells; type: cell-based, Human; conditions: RPMI 8226, KRAS mutated, incubation 2 days
Method: (§1) Cytotoxicity assays consist in treating cells with compounds and assessing remaining viability after a defined incubation time, depending on the cell line. CellTiter-Glo® 2.0 reagent allows viability measurement by quantification of ATP present, which is an indicator of metabolically active cells.
(§2) The cancer cell lines were cultivated in their respective growth medium (see tables 6a and 6b). On day 0 of the cytotoxicity assay, the cells were harvested and seeded into a 384-well plate at a defined density in their respective growth medium (see tables 6a and 6b). Compounds to be tested were then added onto the cells and incubated for a defined duration (see tables 6a and 6b). Following incubation, CellTiter-Glo® 2.0 reagent (cat.no. G9241 from Promega) was added into the wells (vol/vol, according to the manufacturer's recommendations), plates were gently shaken and incubated for 10 minutes in the dark at room temperature. Bioluminescence was then measured with a multimode plate reader (Victor Nivo from Perkin Elmer), and cell viability and relative IC50 were determined. Table 6a: Cancer cell characteristics, culture and cytotoxic assay conditions

HCT116 = experiment: Cytotoxicity assay on KRAS mutated HCT116 cells; type: cell-based, Human; conditions: incubation 2 days
Method: as §1, §2

HEC-1A = experiment: Cytotoxicity assay on KRAS mutated HEC-1A cells; type: cell-based, Human; conditions: incubation 2 days
Method: as §1, §2

A549 = experiment: Cytotoxicity assay on KRAS mutated A549 cells; type: cell-based, Human; conditions: incubation 2 days
Method: as §1, §2

SW480 = experiment: Cytotoxicity assay on KRAS mutated SW480 cells; type: cell-based, Human; conditions: incubation 2 days
Method: as §1, §2

Mia PaCa-2 = experiment: Cytotoxicity assay on KRAS mutated Mia PaCa-2 cells; type: cell-based, Human; conditions: Mia PaCa-2, KRAS mutated, incubation 2 days
Method: as §1, §2

4T1 cells [1] = experiment: Cytotoxicity assay (CellTiter-Glo 2.0) on 4T1 cells; type: cell-based, Mouse; conditions: incubation 2 days; for IC50: Mus musculus, 48 h
Outline: (§3)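 Cells in their own growth media were exposed to compounds for a line-specific incubation time. Remaining viability was read as ATP-dependent luminescence with CellTiter-Glo 2.0 after 10 min at room temperature. Relative IC50 was derived from the viability data.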

HUVECs = experiment: Tube formation assay (anti-angiogenic activity); type: cell-based, human; conditions: incubation 16 to 18 hours; for IC50: Homo sapiens, HUVEC
Outline: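 HUVECs plated at 5000 cells/well on reduced growth factor basement membrane matrix, then exposed to compounds for 16 to 18 hours at 37°C. Cells stained with calcein-AM; tube networks imaged by confocal fluorescence microscopy and quantified.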

PSN1 = experiment: Cytotoxicity assay on KRAS mutated PSN1 cells; type: cell-based, Human; conditions: incubation 2 days
Method: as §1, §2

MDA-MB-231 cells [2] = experiment: Cytotoxicity assay (CellTiter-Glo 2.0) on MDA-MB-231 cells; type: cell-based, Human; conditions: incubation 3 days; for IC50: Homo sapiens, 72 h
Outline: as §3

4T1 cells [3] = experiment: Epithelial-mesenchymal transition marker expression by qRT-PCR; type: cell-based, Mouse; set-up: key: ↗: increased expression; ↘: decreased expression; =: unchanged expression levels; conditions: 24 hours, expression normalized against RPL13
Source text: The epithelial-mesenchymal transition (hereafter "EMT") is a process by which epithelial cells lose their cell polarity and cell-cell adhesion while gaining migratory and invasive properties to become mesenchymal stem cells. EMT is commonly measured by quantifying both epithelial and mesenchymal marker's expression by quantitative reverse-transcription polymerase chain reaction (hereafter "qRT-PCR"). EMT inhibition is observed when epithelial markers are stable or increased while mesenchymal markers are decreased.
4T1 cells were treated with compounds to be tested or DMSO for 24 hours. 4T1 cells were then harvested directly in NucleoZol lysis buffer (cat. no. 740404.200 from Macherey-Nagel), according to the manufacturer's instructions. Total RNA was extracted using the NucleoSpin RNA set for NucleoZol (cat. no. 740406.50 from Macherey-Nagel). The quantity and purity of RNA was determined using a Quickdrop (Molecular Devices). RT-PCR was performed on 500 ng total RNA using iScript gDNA clear cDNA synthesis Kit (cat.no. 1725035 from Biorad). The qPCR was run on a QuantStudio 5 real time thermocycler (Applied Biosystems), with PowerUp SYBR Green Master Mix (cat.no. A25742 from Fisher Scientific) and the primers listed in Table 16.
Expression data of EMT markers have been normalized against expression data of the housekeeping gene RPL13.

EoL-1 cells = experiment: Cytotoxicity assay (CellTiter-Glo 2.0) on EoL-1 cells; type: cell-based, Human; conditions: incubation 1 day; for IC50: Homo sapiens, EOL1, 24 h
Outline: as §3

RD cells [4] = experiment: Cytotoxicity assay (CellTiter-Glo 2.0) on RD cells; type: cell-based, Human; conditions: for IC50: Homo sapiens
Outline: as §3

RD cells [5] = experiment: Differentiation of RD cells into myotubes (alpha-actinin staining); type: cell-based, Human; conditions: 7 days, Figure 3
Method: RD cells are cancer cells of muscle origin that arose from myogenic precursors that fail to complete muscle differentiation. One strategy to stop their progression is to differentiate them into myotubes.
To allow differentiation, RD cells were seeded at a density of 3500 cells/well in a 384-well plate coated with collagen type I, in DMEM (4,5g/L glucose) with L-Gln (cat.no. 41965-039 from Gibco) supplemented with 5% of knockout serum replacement (cat.no. 10828-028 from Gibco), 1% PenStrep (Gibco), 1% MEM NEAA (Gibco) and 0.1 mM 2-mercaptoethanol (Gibco) (hereafter "K5 medium"). Compounds to be tested were then added onto the cells and incubated for 7 days at 37°C. On day 7, cells were fixed with 4% paraformaldehyde solution and immunostained for α-actinin (cat.no. EA-53 from Sigma, at 1/30000).

4T1 cells [6] = experiment: Colony forming (clonogenic) assay; type: cell-based, Mouse; conditions: 6 days of treatment, Figure 2
Method: Cancer stem cells are characterized by their ability to undergo virtually unlimited divisions. Colony forming assay (or clonogenic assay) is an in vitro assay designed to assess capability of single cells to grow into large colonies through clonal expansion.
4T1 cells were seeded at a density of 500 cells per well of six-well plates in 4T1 medium. Compounds to be tested were added 24 hours after seeding. After 6 days of treatment, the cells were fixed in 4% PFA and stained with 1% aqueous solution of crystal violet. Pictures of the entire wells were acquired, and the area of the positives colonies was evaluated by ImageJ software (Wayne Rasband; NIH).

MDA-MB-231 cells [7] = experiment: Scratch (wound healing) assay, cell migration; type: cell-based, Human; conditions: 24 hours, Figure 1
Method: Cell migration is involved in several pathological cancer processes such as tumor invasion, neoangiogenesis and metastasis. Scratch (or wound healing) assay is a method to study two-dimensional cell migration in vitro. It is based on the observation that cells growing in a monolayer migrate to reestablish cell contacts after a mechanical scratch wound.
The MDA-MB-231 cells were seeded into a 24-well plate and grown to confluent density. A scrape was made in each well using a pipette tip. Then, the cells monolayers were incubated for 2 hours with 5 µg/ml mitomycin C to stop cell proliferation. The cells were treated with the compounds to be tested for 24 hours. The cells were stained using CellMask Green actin tracking stain (cat.no. A57246 from Fisher Scientific) at time zero and at endpoint. Pictures were acquired using a fluorescence microscope (IXM from Molecular Device). The scratch area was measured with the ImageJ software. The recovery of the scratch area was calculated as a percentage of the scratch area at time zero.

Src kinase family = experiment: Human phospho-kinase array in RD cells; type: cell-based; conditions: 1 hour at its IC50, Figure 4
Method: Inhibition of kinases can be observed by quantifying both their phosphorylation levels and the phosphorylation level of downstream proteins in their pathways.
RD cells were cultured in vitro and expanded for 4 days prior to the experiments (see example 3.1 and table 6a for details). The assay was performed using the human phospho-kinase array kit (cat.no. ARY003C from R&D Systems), according to the manufacturer's instructions. The RD cells were treated with compound #032 for 1 hour at its IC50 (previously defined) and lysed with lysis buffer supplemented with aprotinin, leupeptin and pepstatin. The total protein extract was titrated using a micro-BCA kit (cat. no. 23235 from Thermofisher Scientific). The array membranes were blocked and incubated overnight at 4 °C with 500 µg of total protein. Then, the detection antibodies were added for 2 hours followed by the HRP-conjugated Streptavidin solution for 30 minutes. The chemiluminescent signal was finally developed by incubating the membranes with the chemi-reagent mix and placed in the Fusion-FX acquisition system (Vilber Instruments). Data were analyzed using ImageJ software (Wayne Rasband; NIH).

Row | Compound | IC50 (4T1 cells [1]) [nM] | Cytotoxicity (4T1 cells [1]) | IC50 (HUVECs) [nM] | Angiogenesis inhibition (HUVECs) | IC50 (MDA-MB-231 cells [2]) [nM] | Cytotoxicity (MDA-MB-231 cells [2]) | Epithelial markers E-cadherin (4T1 cells [3]) | Epithelial markers EpCAM (4T1 cells [3]) | Mesenchymal markers Fibronectin (4T1 cells [3]) | Mesenchymal markers Vimentin (4T1 cells [3]) | IC50 (EoL-1 cells) [nM] | Cytotoxicity (EoL-1 cells) | Cytotoxicity (RD cells [4]; 2 day-treatment) | Cytotoxicity (RD cells [4]; 4 day-treatment) | IC50 (RD cells [4]; 48 h, 2 day-treatment) [nM] | IC50 (RD cells [4]; 96 h, 4 day-treatment) [nM] | further results
1 | CSc1cc(Oc2ccnc3c2OCC(=O)N3)ccc1NC(=O)Nc1cc(C(C)(C)C)no1 [Compound 020, 1-(3-tert-butylisoxazol-5-yl)-3-[2-methylsulfanyl-4-[(3-oxo-4H-pyrido[3,2-b][1,4]oxazin-8-yl)oxy]phenyl]urea] | 1000 to 5000 | +++ (cytotoxicity ≥ 85%) | < 100 | +++ (angiogenesis inhibition ≥ 80%) | < 1000 | ++ (50% ≤ cytotoxicity < 85%) | ↗ | = | ↘ | ↘ | < 1 | +++ (cytotoxicity ≥ 85%) | ++ (50% ≤ cytotoxicity < 85%) | ++ (50% ≤ cytotoxicity < 85%) | 1000 to 5000 | < 1000 | IC50 (RPMI 8226; Homo sapiens, 48 h): < 1000 nM; Cytotoxicity (RPMI 8226): ++ (50% ≤ cytotoxicity < 85%); IC50 (HCT116; Homo sapiens, HCT-116, 48 h): < 1000 nM; Cytotoxicity (HCT116): +++ (cytotoxicity ≥ 85%); IC50 (HEC-1A; Homo sapiens, 48 h): < 1000 nM; Cytotoxicity (HEC-1A): ++ (50% ≤ cytotoxicity < 85%); IC50 (A549; Homo sapiens, 48 h): < 1000 nM; Cytotoxicity (A549): ++ (50% ≤ cytotoxicity < 85%); IC50 (SW480; Homo sapiens, 48 h): < 1000 nM; Cytotoxicity (SW480): ++ (50% ≤ cytotoxicity < 85%); IC50 (Mia PaCa-2; Homo sapiens, 48 h): < 1000 nM; Cytotoxicity (Mia PaCa-2): +++ (cytotoxicity ≥ 85%); IC50 (PSN1; Homo sapiens, 48 h): < 1000 nM; Cytotoxicity (PSN1): +++ (cytotoxicity ≥ 85%)
2 | CSc1cc(Oc2ccnc3c2CCC(=O)N3)ccc1NC(=O)Nc1cc(C(C)(C)C)nn1-c1ccc(C)nc1 [Compound 032, 1-[5-tert-butyl-2-(6-methyl-3-pyridyl)pyrazol-3-yl]-3-[2-methylsulfanyl-4-[(7-oxo-6,8-dihydro-5H-1,8-naphthyridin-4-yl)oxy]phenyl]urea] | < 1000 | +++ (cytotoxicity ≥ 85%) | < 100 | +++ (angiogenesis inhibition ≥ 80%) | < 1000 | ++ (50% ≤ cytotoxicity < 85%) | ↗ | ↗ | = | ↘ | 1 to 10 | +++ (cytotoxicity ≥ 85%) | ++ (50% ≤ cytotoxicity < 85%) | +++ (cytotoxicity ≥ 85%) | 1000 to 5000 | 1000 to 5000 | differentiation into myotubes (RD cells [5]): dose-dependent differentiation into myotubes; colony growth (4T1 cells [6]): inhibition of colony growth; migration in the scratch assay (MDA-MB-231 cells [7]): inhibition of their migration; phosphorylation of members of the Src kinase family and their downstream proteins (Src kinase family): decreased phosphorylation
